The record followed here is patent US12692259B2, “Morpholine-containing and piperazine-containing CXCR4 modulators and uses related thereto” (Emory University, priority 2021, dated 2026).

Bounds are passed on as bounds.

For one data set, the target named is CXCR4 (Homo sapiens, UniProt P61073). Put plainly: Calcium flux assay (antagonist mode, SDF-1α challenge). It is filed as cell-based. The arrangement: Eurofins or Bristol Myers Squibb (contract assay). The settings on record: read-out: CXCR4 Ca^+2 Flux IC50. As for the experimental part:
Calcium flux assay was performed by Eurofins or Bristol Myers Squibb. The method used by Eurofins is described below.
Compound plate preparation: Vehicle controls and positive controls were prepared to ensure all assays were properly controlled. All wells were prepared using the Eurofins Discovery Services GPCRProfiler® Assay Buffer. The GPCRProfiler® Assay Buffer was a modified Hanks Balanced Salt Solution (HBSS) where HBSS was supplemented to contain 20 mM HEPES and 2.5 mM Probenecid at pH 7.4.
Agonist assay (first addition): Compound(s) supplied were plated in duplicate for each concentration assayed. During the agonist assay, the concentration(s) reflects accommodation for the dilution of compound during the antagonist assay. Please see below for further details. […] The reference agonist for each GPCR was included at Emax (the concentration where the reference agonist elicited a maximal response). The agonist assay was conducted on a FLIPR^TETRA instrument where the test compound(s), vehicle controls, and reference agonist were added to the assay plate after a fluorescence/luminescence baseline was established. The agonist assay was a total of 180 seconds and was used to assess each compound's ability to activate each GPCR assayed. Upon completion of the three minute agonist assay, the assay plate was incubated at 25° C. for a further two minutes. After the incubation period the antagonist assay was initiated.
The antagonist assay was conducted using the same assay plate that was used for the agonist assay. The antagonist assay was conducted on a FLIPR^TETRA instrument where vehicle controls and challenge concentration of reference agonist were added to appropriate wells. The antagonist assay was a total of 180 seconds and was used to assess each compound's ability to inhibit each GPCR assayed.
Data Processing—All plates were subjected to appropriate baseline corrections. Once baseline corrections were processed, maximum fluorescence/luminescence values were exported, and data manipulated to calculate percentage activation and percentage inhibition. […] Data manipulation calculation is as followed: ((Max RLU)−(Baseline Avg.))/((Positive Avg.)−(Baseline Avg.)).
In general terms: Calcium assays in cells follow changes in intracellular calcium, usually with a dye or a luminescent sensor.

The next data set is described as follows: in vitro. The settings on record: mouse, pH 7.4; for Liver Microsomes % rem. @ 10 min. M: 3 µM; for half-life at 3 µM: microsomes. As for the experimental part: Metabolic stability assay was performed at Emory University's Department of Chemistry or by Bristol Myers Squibb. The method used by Emory University's Department of Chemistry is described below.
Each method was developed in the presence of an internal standard (ISTD) d5-7-ethoxy coumarin. The column temperature was maintained at 40° C. for most of the samples otherwise noted. The detection was operated in the Agilent JetStream electrospray positive ionization using multiple reaction monitoring mode (MRM).
Other MS conditions were as follows: dwell time 100 ms; gas flow 10 L/min; nebulizer pressure 45 psi; delta EMV 200 V; fragmentor voltage and collision energy for individual compounds vary.
Test compounds were dissolved in 100% DMSO or 100% MeOH to make 10 mM stock solutions. Verapamil (Sigma Aldrich) aided as a positive control and was dissolved in 100% DMSO to make 10 mM stock solutions. The 10 mM stock solution of test and control compounds were further diluted in potassium phosphate buffer (100 mM, pH 7.4) to 500 μM to ensure the organic solvent content was <0.2%. Human liver microsomes (HLMs) were purchased from Xenotech at 20 mg/mL. NADPH (Sigma Aldrich) 10 mM stocks were prepared in deionized water.
The HLM assay was prepared in a 1.5 mL Eppendorf tube with a final volume of 1100 μL for duplicate runs. Each reaction contained phosphate buffer (928.4 μL), liver microsomes (55 μL), and test compound resulting in a final concentration of 3 μM (6.6 μL of 500 μM). The reaction was initiated with 110 μL of 10 mM NADPH. […] Before centrifugation each of the aliquoted tubes were vortexed to make sure compounds were in the solution. The aliquots were centrifuged at 12,000 g for 5 min and the supernatant removed and placed in an LC-MS vial. Each time point was assessed using LC-MS and the area, based on the extracted ion, was integrated with respect to the ISTD. […] A no-NADPH negative control with test or control compound was performed in a single run (150 μL) at the longest time point. Controls were processed and analyzed like the test compounds. Each time point was run in duplicates followed by in-between blank washes to avoid the carryover and to equilibrate the column.
The MLM assay was performed using the same procedures as those described above for the HLM assay.
Background: Liver microsomes are vesicles of endoplasmic reticulum, rich in cytochrome P450 enzymes.

For the next data set, the target named is T1, CYP3A4 (Homo sapiens, UniProt P08684).
T1 construct: purchased Corning; host or cells: insect cells (microsomes)
T1 sequence (P08684 whole entry): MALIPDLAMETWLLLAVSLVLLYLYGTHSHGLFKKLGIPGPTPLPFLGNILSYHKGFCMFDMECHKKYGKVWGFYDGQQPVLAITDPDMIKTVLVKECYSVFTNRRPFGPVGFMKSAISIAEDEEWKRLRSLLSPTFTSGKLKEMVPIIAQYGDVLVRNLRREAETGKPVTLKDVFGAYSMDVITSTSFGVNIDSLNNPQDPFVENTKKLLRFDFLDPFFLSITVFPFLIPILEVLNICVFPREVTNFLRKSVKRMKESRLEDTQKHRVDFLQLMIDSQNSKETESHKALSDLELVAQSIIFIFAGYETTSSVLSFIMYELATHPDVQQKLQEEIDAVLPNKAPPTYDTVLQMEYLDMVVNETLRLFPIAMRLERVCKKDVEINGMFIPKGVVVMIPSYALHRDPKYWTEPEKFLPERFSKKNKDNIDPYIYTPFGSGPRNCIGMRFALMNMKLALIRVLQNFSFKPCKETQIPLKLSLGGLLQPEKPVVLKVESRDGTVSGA
Put plainly: Fluorometric CYP450 inhibition assay, CYP3A4. It is filed as in vitro ADME. The settings on record: read-out: CYP450 IC50 (μM) 3A4. As for the experimental part: The CYP450 inhibition assays utilized microsomes from insect cells expressing human recombinant individual cDNA-expressed CYP isoforms 3A4 and 2D6, as well as the fluorogenic probe that produces fluorescent metabolite. Standard inhibitors were co-incubated with fluorogenic substrates and their inhibitory potential (IC50) was determined. Assay conditions in terms of CYP450 protein concentration and time of incubation were standardized, enzyme kinetics parameters of each fluorescent probe substrate were estimated and IC50 values of inhibitors were determined and validated on different days to check reproducibility.
A 100 mM sodium phosphate buffer was prepared and adjusted to pH 7.4. In a separate falcon tube, a 2× enzyme/substrate (E/S) solution was prepared in phosphate buffer. The final concentration of CYP2D6 (CORNING®) and 7-amido-4-methyl coumaric acid (AMMC) was 10 nM and 4 μM, and CYP3A4 (CORNING®) and 7-benzyloxy-4-(trifluoromethyl) coumarin (BFC) was 20 nM and 40 μM, respectively. In a separate falcon tube, a 2×NADPH regenerating system (NRS) was prepared in phosphate buffer.
Both enzymatic assays were conducted in a 96-well microtiter plate (Black, CORNING® COSTAR®) with a final volume of 100 μL. Preparation of the plate began with the addition of 74 μL of the E/S in the first well, and 50 μL to all subsequent wells (from 2-11). […] A 1:3 serial dilution of the test compound was conducted by removing 25 μL from the first well and diluting it with the second and so forth until the tenth row. Final concentrations yielded a range from 200 μM-0.01 μM. Well no. 11 contained no inhibitor, and well no. 12 contained no enzyme. Both were used as controls for background fluorescence. The plate was incubated for 30 min at 37° C. After incubation, the reaction was initiated by the addition of 50 μL of the 2×NRS to each well.
Immediately (within 1 min) the fluorescence was measured using a microplate reader (BIOTEK® Synergy Neo2). […] Data was exported and analyzed using Graph Pad Prism 7. […] The IC50 value was derived after the data was fitted on a 10-point curve using a four-parameter logistic regression model.

CXCR4, sequence (P61073 whole entry): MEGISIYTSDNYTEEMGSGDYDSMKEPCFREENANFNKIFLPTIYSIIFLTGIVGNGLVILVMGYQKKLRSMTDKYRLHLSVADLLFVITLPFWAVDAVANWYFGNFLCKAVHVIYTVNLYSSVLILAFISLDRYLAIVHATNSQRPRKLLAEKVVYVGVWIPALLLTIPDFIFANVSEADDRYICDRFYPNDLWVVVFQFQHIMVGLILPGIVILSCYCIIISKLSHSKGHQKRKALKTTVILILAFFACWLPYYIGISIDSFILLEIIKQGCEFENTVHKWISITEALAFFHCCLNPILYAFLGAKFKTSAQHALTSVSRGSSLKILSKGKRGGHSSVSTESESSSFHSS

The term IC50 denotes the concentration that inhibits the measured activity by half. Take `CN1CCN(c2cccc3c2CC(CN(C)[C@H]2CCOc4cccnc42)NC3)CC1` (stereo partly drawn) [EMU-320, (4S)—N-methyl-N-((5-(4-methylpiperazin-1-yl)-1,2,3,4-tetrahydroisoquinolin-3-yl)methyl)-3,4-dihydro-2H-pyrano[3,2-b]pyridin-4-amine]: the IC50 on CXCR4 was found to be 13 nM; at CYP3A4, 3.2 µM. The “Liver Microsomes % rem. @ 10 min. M” value in the data set “in vitro” turned out to be 91.6%.

A word on the half-life: it is the time in which the quantity being followed falls by half. Higher therefore signals slow loss. With `CC(=O)N1CCN(c2cccc3c2C[C@H](CN(C)[C@H]2CCCc4cccnc42)NC3)CC1` [EMU-262, 1-(4-((R)-3-((methyl((S)-5,6,7,8-tetrahydroquinolin-8-yl)amino)methyl)-1,2,3,4-tetrahydroisoquinolin-5-yl)piperazin-1-yl)ethan-1-one], the IC50 on CXCR4 was 56 nM; at CYP3A4 it was 16.3 µM. Further, the half-life at 3 µM in the data set “in vitro” was 5.5 min.

For the compound `CN(C[C@H]1Cc2c(cccc2N2CCNC(=O)C2)CN1)[C@H]1CCCc2cccnc21` [EMU-254, 4-((R)-3-((methyl((S)-5,6,7,8-tetrahydroquinolin-8-yl)amino)methyl)-1,2,3,4-tetrahydroisoquinolin-5-yl)piperazin-2-one], the IC50 on CXCR4 amounted to 52 nM; on CYP3A4, 14.3 µM. The half-life at 3 µM in “in vitro” turned out to be 35 min.

As for `CN1CCN(c2cccc3c2C[C@@H](CN(C)[C@H]2CCCc4cccnc42)NC3)C(=O)C1` [EMU-251, 4-methyl-1-((S)-3-((methyl((S)-5,6,7,8-tetrahydroquinolin-8-yl)amino)methyl)-1,2,3,4-tetrahydroisoquinolin-5-yl)piperazin-2-one], the IC50 on CXCR4 stood at 205 nM; at CYP3A4, 48.4 µM. For the same compound, the half-life at 3 µM in the data set “in vitro” is 126 min.

For `CN(C[C@H]1Cc2c(cccc2N2CC3COC2C3)CN1)[C@H]1CCCc2cccnc21` (stereo in doubt) [EMU-324, (S)—N—(((R)-5-((1S,4R)-2-oxa-6-azabicyclo[2.2.1]heptan-6-yl)-1,2,3,4-tetrahydroisoquinolin-3-yl)methyl)-N-methyl-5,6,7,8-tetrahydroquinolin-8-amine], the IC50 on CXCR4 was found to be 31 nM; on CYP3A4, 3.5 µM. The “Liver Microsomes % rem. @ 10 min. M” value in “in vitro” is listed as 36.9%.

Turning to `CCOC(=O)N1CCN(c2cccc3c2C[C@H](CN(C)[C@H]2CCCc4cccnc42)NC3)CC1` [EMU-261, ethyl 4-((R)-3-((methyl((S)-5,6,7,8-tetrahydroquinolin-8-yl)amino)methyl)-1,2,3,4-tetrahydroisoquinolin-5-yl)piperazine-1-carboxylate], the IC50 at CXCR4 came to 990 nM; on CYP3A4 it was 7.82 µM. The same compound gave a half-life at 3 µM in the data set “in vitro” of 7.4 min.

As to `CN(C[C@H]1Cc2c(cccc2N2CCN(S(C)(=O)=O)CC2)CN1)[C@H]1CCCc2cccnc21` [EMU-263, (S)—N-methyl-N—(((R)-5-(4-(methylsulfonyl)piperazin-1-yl)-1,2,3,4-tetrahydroisoquinolin-3-yl)methyl)-5,6,7,8-tetrahydroquinolin-8-amine], the IC50 on CXCR4 amounted to 312 nM; at CYP3A4, 24.1 µM. The compound further had a half-life at 3 µM in “in vitro” of 3 min.

As to `CN1CCN(c2cccc3c2C[C@H](CN(C)[C@H]2CCCc4cccnc42)NC3)CC1=O` [EMU-255, 1-methyl-4-((R)-3-((methyl((S)-5,6,7,8-tetrahydroquinolin-8-yl)amino)methyl)-1,2,3,4-tetrahydroisoquinolin-5-yl)piperazin-2-one], the results for the IC50 on CXCR4 and at CYP3A4 were 224 nM and 13.7 µM, respectively. This compound also yielded a half-life at 3 µM in the data set “in vitro” of 17 min.

Take `CN(C[C@H]1Cc2c(cccc2N2CCN3CCOC[C@H]3C2)CN1)[C@H]1CCCc2cccnc21` [EMU-343, (S)—N—(((R)-5-((R)-hexahydropyrazino[2,1-c][1,4]oxazin-8(1H)-yl)-1,2,3,4-tetrahydroisoquinolin-3-yl)methyl)-N-methyl-5,6,7,8-tetrahydroquinolin-8-amine]: the IC50 on CXCR4 was 4.4 nM; on CYP3A4, > 20 µM. For the same compound, the “Liver Microsomes % rem. @ 10 min. M” value in the data set “in vitro” came to 33.8%.
